We go through 4 molecules from US7732493B2, “2-substituted D-homo-estra-1,3,5(10)-trienes as inhibitors of 17β-hydroxy steroid dehydrogenase type 1” (Bayer Schering Pharma Aktiengesellschaft, priority 2004, dated 2010).

This assay has as its target T1, human 17β-hydroxy steroid dehydrogenase type 1 (17β-HSD1) (Homo sapiens, UniProt P14061).
T1 construct: made in house; host or cells: E. coli
T1 sequence (P14061 1-328): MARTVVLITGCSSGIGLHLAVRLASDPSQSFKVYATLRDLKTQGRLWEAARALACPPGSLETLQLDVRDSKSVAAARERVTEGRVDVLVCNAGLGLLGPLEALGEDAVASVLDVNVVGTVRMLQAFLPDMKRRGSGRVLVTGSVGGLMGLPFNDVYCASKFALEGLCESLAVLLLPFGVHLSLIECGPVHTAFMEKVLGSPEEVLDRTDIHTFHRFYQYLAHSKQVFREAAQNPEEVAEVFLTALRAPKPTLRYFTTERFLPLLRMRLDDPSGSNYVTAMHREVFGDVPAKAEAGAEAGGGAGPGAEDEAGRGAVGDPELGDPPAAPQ
In words: Inhibition of the activity of human 17β-hydroxy steroid dehydrogenase type 1 (3H-labeled substrate conversion, HPLC). As to conditions: human enzyme over-expressed in E. coli, bacterial suspension, 37° C., double determination; read-out: 17βHSD1 IC50. The format is biochemical. From the text:
The test process is well described in the literature [Adamski, J., Sierralta, W. D., Jungblut, P. W., Acta Endocrinol (Copenh.) 121(2) (1989), 161-7] and is depicted below.
Human 17β-hydroxy steroid dehydrogenases (17β-HSDs) are over-expressed in E. coli bacteria as His-Tag proteins or as GST-fusion proteins. The suspensions of the bacterial pellets in isotonic common salt solution are used for the determination of enzyme activities of the 17β-HSDs or for the study of their influence by potential inhibitors (estrogen derivatives).
The measurements are made in double determination and, if necessary, at various concentrations of potential inhibitors (e.g., in determining the IC50 values). In addition to the target enzyme 17β-HSD1, other steroid-metabolizing enzymes are included in the test to study cross reactivities of estrogen derivatives.
The incubation of the samples is carried out at 37° C. in a water bath while being shaken, such that in the control (without substances to be tested), a conversion of about 30% is achieved.
The separation of radiolabeled substrate and product is then carried out, after extraction with 1 ml of reversed phase-(RP-18)-cartridges, by means of HPLC on an RP18 column with acetonitrile:water 1:1 (v/v) as a mobile phase. The radioactivity is detected with the aid of a flow-scintillation counter.
The evaluation of the substrate conversion with and without substances to be tested is performed by the integration of the substrate and product peaks. The conversion of the control is normalized to 100% conversion.
The IC50 is the concentration needed to halve the response being measured. Turning to “2-Bromo-17a-oxo-17a-homoestra-1,3,5(10)-trien-3-ol [Example 3]”, the IC50 is 52 nM.
For the molecule “2-Iodo-17a-oxo-17a-homoestra-1,3,5(10)-trien-3-ol [Example 4]”, the IC50 turned out to be 52 nM.
For `COc1cc2c(cc1O)CC[C@@H]1[C@@H]2CC[C@]2(C)C(=O)CCC[C@@H]12` [Example 1, 2-Methoxy-17a-oxo-17a-homoestra-1,3,5(10)-trien-3-ol] the value was 85 nM; for `C=CCc1cc2c(cc1O)CC[C@@H]1[C@@H]2CC[C@]2(C)C(=O)CCC[C@@H]12` [Example 7, 2-Allyl-17a-oxo-17a-homoestra-1,3,5(10)-trien-3-ol], 24 nM.
